Results: patent publication US20240325399A1, “PHARMACEUTICAL COMPOSITION FOR PREVENTING OR TREATING CHOLANGITIS OR LIVER DISEASE CAUSED BY CHOLANGITIS COMPRISING ADENOSINE DERIVATIVE” (FUTURE MEDICINE CO., LTD., priority 2021, published 2024)

Key:
[1] = test system: TPA-induced inflammation of the mouse ear; assay: Anti-inflammatory activity, TPA-induced inflammation of the mouse ear; format: in vivo, ICR mice; conditions: for Anti-inflammatory activity (TPA-induced mouse ear inflammation): 0.5% in acetone, 20 μl, topical to ear
Protocol: The adenosine derivatives of the present invention were examined for anti-inflammatory activity in the following animal test. Seven-week-old male ICR mice were treated with TPA (12-O-tetradecanoylphorbol-13-acetate, 20 l) in the right ear. […] Hydrocortisone was used at the same concentration as a control.
6 hrs after treatment with TPA, the mice were secondarily treated with the adenosine derivatives of the present invention. 24 hrs after TPA treatment, test animals were euthanized using a cervical dislocation method. Samples were obtained from the right ear using a 6 mm diameter punch. The activity was observed by measuring the ear sample using a microbalance. Percentages of inhibition were calculated using the following Equation 1. The compositions and amounts used in these experiments are summarized in Tables 14 to 17 and the anti-inflammatory activities thereof are shown in FIGS. 10 to 13.

[2] = target: T1, human A1 adenosine receptor (hA1) (Homo sapiens, UniProt P30542); assay: Binding affinity for A1 adenosine receptor ([3H]CCPA, CHO cells); conditions: percentage inhibition of specific binding in the presence of 10 μM of the unlabeled ligand NECA
T1 construct: expressed in transfected cells; host or cells: CHO cells (ATCC No. CCL-61)
T1 sequence (P30542 1-326): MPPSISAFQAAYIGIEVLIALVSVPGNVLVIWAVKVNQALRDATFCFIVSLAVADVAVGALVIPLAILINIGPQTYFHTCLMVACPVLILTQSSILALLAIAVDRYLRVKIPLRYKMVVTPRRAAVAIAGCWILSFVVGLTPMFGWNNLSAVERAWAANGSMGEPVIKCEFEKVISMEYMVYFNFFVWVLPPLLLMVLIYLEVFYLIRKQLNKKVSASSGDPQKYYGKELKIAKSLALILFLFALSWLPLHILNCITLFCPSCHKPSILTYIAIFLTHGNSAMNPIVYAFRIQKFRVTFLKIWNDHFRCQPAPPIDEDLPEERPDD
Protocol: CHO cells (ATCC No. CCL-61), in which A1 and A3 adenosine receptors were expressed, were cultured in F-12 media (Gibco, U.S.A.) supplemented with 10% fetal bovine serum (FBS) and penicillin/streptomycin (100 units/ml and 100 g/ml), at 37° C. in a 5% CO2 atmosphere. […] Incubation for 1 hr in a 37° C. incubator was followed by rapid filtration in a vacuum using a cell collector (TOMTEC, U.S.A.). Subsequently, the test tubes were washed three times with 3 ml of the buffer before radioactivity was measured using a γ-counter. […] Ki for binding affinity was determined by subtracting the non-specific binding value from the total binding value. On the basis of the specific binding values, the samples were analyzed for binding affinity to various adenosine receptors.

[3] = target: T2, human A2A adenosine receptor (hA2A) (Homo sapiens, UniProt P29274); assay: Binding affinity for A2A adenosine receptor ([3H]CGS-21680, HEK 293 cell); conditions: percentage inhibition of specific binding of 10 μM labeled ligand in the presence of 10 μM of the unlabeled ligand NECA
T2 construct: expressed in transfected cells; host or cells: HEK 293 cell
T2 sequence (P29274 whole entry): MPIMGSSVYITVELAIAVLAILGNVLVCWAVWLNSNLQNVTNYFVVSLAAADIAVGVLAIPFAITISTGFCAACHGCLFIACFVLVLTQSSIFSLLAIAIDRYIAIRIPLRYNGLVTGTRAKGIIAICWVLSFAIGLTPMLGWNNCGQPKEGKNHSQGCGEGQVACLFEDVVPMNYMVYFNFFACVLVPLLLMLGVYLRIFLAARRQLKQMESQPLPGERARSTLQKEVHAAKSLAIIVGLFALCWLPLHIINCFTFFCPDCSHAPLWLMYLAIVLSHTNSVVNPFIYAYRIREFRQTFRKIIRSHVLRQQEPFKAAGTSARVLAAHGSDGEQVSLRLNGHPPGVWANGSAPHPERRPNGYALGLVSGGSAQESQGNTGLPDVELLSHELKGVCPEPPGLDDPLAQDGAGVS
Protocol: Each of the compounds synthesized in the examples was measured for IC50 at least 6 different concentrations, and the measurements were analyzed using SigmaPlot software to determine Ki values.

Sprague Dawley rats = assay: Toxicity after intraperitoneal injection, 24 hrs observation, rats; format: in vivo; conditions: SD rats, intraperitoneal 20, 10 and 1 mg/kg
Protocol: (§1) The Adenosine Derivative of the present invention were assayed for cytotoxicity in animals.

ICR mice = assay: Toxicity after intraperitoneal injection, 24 hrs observation, mice; format: in vivo; conditions: intraperitoneal 20, 10 and 1 mg/kg
Protocol: as §1

[4] = patients with liver cirrhosis; cited from earlier work

Compound: O[C@@H]1[C@H](O)CS[C@H]1n1cnc2c(NCc3cccc(F)c3)nc(Cl)nc21 [Example 1, (2R,3R,4S)-2-(2-chloro-6-(3-fluorobenzylamino)-9H-purin-9-yl)tetrahydrothiophen-3,4-diol]
- Anti-inflammatory activity (TPA-induced mouse ear inflammation) [1]: increased

Compound: O[C@@H]1[C@H](O)CS[C@H]1n1cnc2c(NCc3cccc(Cl)c3)nc(Cl)nc21 [Example 2, (2R,3R,4S)-2-(2-chloro-6-(3-chlorobenzylamino)-9H-purin-9-yl)tetrahydrothiophen-3,4-diol]
- % inhibition of specific binding, hA1 [2]: 37.9%
- % inhibition of specific binding, hA2A [3]: 17.7%
- Weight gain or feed intake versus control group (Sprague Dawley rats): No difference in weight gain or feed intake
- Weight gain or feed intake versus control group (ICR mice): No difference in weight gain or feed intake

Compound: COc1ccc(Cl)cc1CNc1nc(Cl)nc2c1ncn2[C@@H]1SC[C@@H](O)[C@H]1O [Example 6, (2R,3R,4S)-2-(2-chloro-6-(5-chloro-2-methoxybenzylamino)-9H-purin-9-yl)tetrahydrothiophen-3,4-diol]
- Percentage of inflammation inhibition ([1]; 0.5% in a mixture of distilled water and acetone (1:4)): 34%
- Anti-inflammatory activity (TPA-induced mouse ear inflammation) [1]: increased

Compound: O[C@@H]1[C@H](O)CO[C@H]1n1cnc2c(NCc3cccc(I)c3)nc(Cl)nc21 [Example 16, (2R,3R,4R)-2-(2-chloro-6-(3-iodobenzylamino)-9H-purin-9-yl)tetrahydrofuran-3,4-diol]
- Percentage of inflammation inhibition ([1]; 0.5% in a mixture of DMSO and acetone (1:9)): 79%

Compound: CC[C@H]1[C@@H](O)[C@@H]2[C@H](CC[C@]3(C)[C@@H]([C@H](C)CCC(=O)O)CC[C@@H]23)[C@@]2(C)CC[C@@H](O)C[C@@H]12 [OCA, obeticholic acid]
- Liver safety in patients [4]: may induce acute liver failure in patients with liver cirrhosis
